In patent US20120283216A1, “FUNGICIDAL 2-(BICYCLIC ARYLOXY)CARBOXAMIDES” (priority 2009, published 2012):

Tests used:
Type in all cases: in vivo
Botrytis cinerea = assay: Test C: tomato botrytis, preventive spray on tomato seedlings, visual disease rating; conditions: preventive spray at 40 ppm, rated after 48 h + 3 days; for pest or weed control at 40 ppm: Botrytis cinerea, 120 h, read-out: Test C disease control rating (100 = 100% disease control, 0 = no disease control relative to the controls)
Procedure, shortened: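 Compounds applied at 40 ppm (≈800 g/ha) in acetone/water with surfactant, sprayed to run-off on tomato seedlings. Inoculated next day with B. cinerea spores; 48 h saturated humidity at 20 °C, then 3 days at 27 °C. Visual rating as % disease control versus untreated controls.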

Septoria tritici = assay: Test B: wheat leaf blotch, preventive spray on wheat seedlings, visual disease rating; conditions: preventive spray at 40 ppm, rated after 48 h + 19 days; for pest or weed control at 40 ppm: Zymoseptoria tritici, 504 h, read-out: Test B disease control rating (100 = 100% disease control, 0 = no disease control relative to the controls)
Procedure, shortened: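 Wheat seedlings were sprayed to run-off with 40 ppm compound (≈800 g/ha) in acetone/water with 250 ppm surfactant, then inoculated with Septoria tritici spores the next day. After 48 h saturated humidity at 20° C and 19 days in a growth chamber at 20° C, disease control was rated visually (0–100% vs controls).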

[1] = test system: Blumeria graminis f. sp. tritici; assay: Test A: wheat powdery mildew, preventive spray on wheat seedlings, visual disease rating; conditions: preventive spray at 40 ppm, rated 8 days after inoculation; for pest or weed control at 40 ppm: Blumeria graminis, 192 h, read-out: Test A disease control rating (100 = 100% disease control, 0 = no disease control relative to the controls)
Procedure, shortened: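 Wheat seedlings sprayed to run-off with 40 ppm compound (equivalent to 800 g/ha) in acetone/water with 250 ppm surfactant, then dusted with B. graminis spores next day. Held at 20° C. for 8 days before visual rating, 0–100 scale as % disease control relative to controls.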

Row | SMILES | Test C disease control rating (100 = 100% disease control, 0 = no disease control relative to the controls) (Botrytis cinerea) [%] | Test B disease control rating (100 = 100% disease control, 0 = no disease control relative to the controls) (Septoria tritici) [%] | Test A disease control rating (100 = 100% disease control, 0 = no disease control relative to the controls) [1] [%] | pest or weed control at 40 ppm (Botrytis cinerea) [%] | pest or weed control at 40 ppm (Septoria tritici) [%] | pest or weed control at 40 ppm [1] [%]
1 | CCC(Oc1cnc2ccc(Cl)cc2c1)C(=O)NC(C)(C)COC (stereo not drawn) [Compound 49] | 98 | 99 | 96 |  |  | 
2 | COC(Oc1ccc2ccc(C(F)F)cc2c1)C(=O)NC(C)(C)C#N (stereo not drawn) [Compound 79] | 99 | 98 | 72 |  |  | 
3 | COC(Oc1cnc2ccc(I)cc2c1)C(=O)NC1(C)CC1 (stereo not drawn) [Compound 64] | 100 | 99 | 84 |  |  | 
4 | CCOc1ccc2ccc(OC(OC)C(=O)NC(C)(C)C#N)cc2c1 (stereo not drawn) [Compound 68] | 100 | 100 | 100 |  |  | 
5 | COCC(C)(C)NC(=O)C(OC)Oc1ccc2ccc(OC)cc2c1 (stereo not drawn) [Compound 83] | 100 | 99 | 96 |  |  | 
6 | CCCOc1ccc2ccc(OC(OC)C(=O)NC(C)(C)CC)cc2c1 (stereo not drawn) [Compound 136] | 97 | 98 | 79 |  |  | 
7 | C#CC(C)(C)NC(=O)C(OC)Oc1ccc2ccc(OC)cc2c1 (stereo not drawn) [Compound 82] | 100 | 99 | 96 |  |  | 
8 | C#CC(C)(C)NC(=O)C(CC)Oc1ccc2ccc(OC)cc2c1 (stereo not drawn) [Compound 4] | 100 | 100 | 97 |  |  | 
9 | C#CC(C)(C)NC(=O)C(CC)Oc1ccc2ccc(OC(F)F)cc2c1 (stereo not drawn) [Compound 6] | 100 | 100 | 98 |  |  | 
10 | CCC(Oc1ccc2ccc(Br)cc2c1)C(=O)NC(C)(C)COP(C)(C)=O (stereo not drawn) [Compound 10] | 98 | 99 | 21 |  |  | 
11 | C#CC(C)(C)NC(=O)C(CC)Oc1cnc2ccc(Br)cc2c1 (stereo not drawn) [Compound 38] | 99 | 100 | 21 |  |  | 
12 | C#Cc1ccc2ccc(OC(CC)C(=O)NC(C)(C)COC)cc2c1 (stereo not drawn) [Compound 97, 2-[(7-ethynyl-2-naphthalenyl)oxy]-N-(2-methoxy-1,1-dimethylethyl)-butanamide] |  |  |  | 99 | 100 | 100
13 | C#Cc1ccc2ccc(OC(OC)C(=O)NC(C)(C)COC)cc2c1 (stereo not drawn) [Compound 106, 2-[(7-ethynyl-2-naphthalenyl)oxy]-2-methoxy-N-(2-methoxy-1,1-dimethylethyl)acetamide] |  |  |  | 99 | 100 | 100
14 | CC#Cc1ccc2ncc(OC(OC)C(=O)NC(C)(C)COC)cc2c1 (stereo not drawn) [Compound 158] | 99 | 38 | 98 |  |  | 
15 | C#CC(C)(C)NC(=O)C(CC)Oc1ccc2ccc(CCC)cc2c1 (stereo not drawn) [Compound 144] | 98 | 93 | 99 |  |  | 
16 | C#CC(C)(C)NC(=O)C(CC)Oc1cnc2ccc(F)cc2c1 (stereo not drawn) [Compound 47] | 70 | 20 | 0 |  |  | 
17 | CCC(Oc1ccc2ccc(C(F)F)cc2c1)C(=O)NC(C)(C)C#N (stereo not drawn) [Compound 77] | 67 | 99 | 0 |  |  | 
18 | CCC(Oc1ccc2ccc(Br)cc2c1)C(=O)NC1(C)CC1 (stereo not drawn) [Compound 13] |  |  |  | 99 | 98 | 50
19 | CCCOc1ccc2ccc(OC(CC)C(=O)NC(C)(C)COC)cc2c1 (stereo not drawn) [Compound 127] | 99 | 99 | 94 |  |  | 
20 | CCC(Oc1cnc2ccc(Br)cc2c1)C(=O)NC(C)(C)C (stereo not drawn) [Compound 37, 2-[(6-bromo-3-quinolinyl)oxy]-N-(1,1-dimethylethyl)butanamide] |  |  |  | 99 | 100 | 89
21 | COCC(C)(C)NC(=O)C(OC)Oc1cnc2ccc(Br)cc2c1 (stereo not drawn) [Compound 154] | 94 | 99 | 91 |  |  | 
22 | CCC(Oc1cnc2c(Cl)cc(Cl)cc2c1)C(=O)NC(C)(C)C (stereo not drawn) [Compound 57] |  |  |  | 99 | 99 | 0
23 | CCC(Oc1cnc2ccc(Br)cc2c1)C(=O)NC(C)(C)COCOC (stereo not drawn) [Compound 58] | 99 | 100 | 99 |  |  | 
24 | C#Cc1ccc2ccc(OC(CC)C(=O)NC(C)(C)C#CC)cc2c1 (stereo not drawn) [Compound 111, N-(1,1-dimethyl-2-butyn-1-yl)-2-[(7-ethynyl-2-naphthalenyl)oxy]butanamide] |  |  |  | 100 | 100 | 100
25 | CCC(Oc1ccc2ccc(Br)cc2c1)C(=O)NC(C)(C)COCOC (stereo not drawn) [Compound 20, 2-[(7-bromo-2-naphthalenyl)oxy]-N-[2-(methoxymethoxy)-1,1-dimethylethyl]butanamide] |  |  |  | 98 | 99 | 98
26 | CCC(Oc1cnc2ccc(Br)cc2c1)C(=O)NC1(C(=O)OC)CC1 (stereo not drawn) [Compound 44] | 0 | 0 | 0 |  |  | 
27 | CCC(Oc1ccc2ccc(C)cc2c1)C(=O)NC(C)(C)COC (stereo not drawn) [Compound 159, N-(2-methoxy-1,1-dimethylethyl)-2-[(7-methyl-2-naphthalenyl)oxy]-butanamide] |  |  |  | 99 | 13 | 99
